Converted amounts (≈) assume the structure as drawn. The source made the active and inactive calls.

Broadly, the MIC is the least concentration at which growth counts as inhibited. For orientation: MBC means the smallest concentration meeting the test's criterion for killing.

The test system of series [1] is Nakaseomyces glabratus. In words: Antifungal activity against Candida glabrata ATCC 2001 incubated for 24 hrs by microdilution method. Type of series: functional, organism-based. On the technique in general: Broth dilution looks for growth in wells or tubes with falling amounts of substance.
The subject of series [2] is Candida albicans. Kind of series: Antifungal activity against Candida albicans ATCC 10231 incubated for 24 hrs by microdilution method. It counts as functional, organism-based.
In series [3] the test system is Escherichia coli. Kind of series: Antibacterial activity against Escherichia coli ATCC 11175 incubated for 24 hrs by microdilution method. It counts as functional, organism-based.
Series [4] concerns Pseudomonas aeruginosa. Kind of series: Antibacterial activity against Pseudomonas aeruginosa ATCC 10145 incubated for 24 hrs by microdilution method. Type of series: functional, organism-based.
Series [5] deals with Staphylococcus aureus. Kind of series: Antibacterial activity against Staphylococcus aureus ATCC 43300 incubated for 24 hrs by microdilution method. It counts as functional.
The subject of series [6] is Staphylococcus aureus. In words: Antibacterial activity against methicillin-resistant Staphylococcus aureus ATCC 43300 incubated for 24 hrs by microdilution method. It counts as functional.
The subject of series [7] is Bacillus subtilis. In words: Antibacterial activity against Bacillus subtilis ATCC 6051 incubated for 24 hrs by microdilution method. It counts as functional.
Series [8] relates to Staphylococcus aureus. Kind of series: Antibacterial activity against Staphylococcus aureus ATCC 6538 incubated for 24 hrs by microdilution method. Type of series: functional.
The test system of series [9] is Bacillus subtilis. In words: Bactericidal activity against Bacillus subtilis ATCC 6051 incubated for 24 hrs by microdilution method. It counts as functional.
The test system of series [10] is Staphylococcus aureus. In words: Bactericidal activity against Staphylococcus aureus ATCC 43300 incubated for 24 hrs by microdilution method. It counts as functional.
Series [11] in a line: Chemical reactivity of compound in formaldehyde assessed as (1S,2R,18R,19R,22S,25R,28R,40S)-48-[(2S,3R,4S,5S,6R)-3-[(2S,4S,5S,6S)-4-amino-5-hydroxy-4,6-dimethyl-tetrahydropyran-2-yl]oxy-4,5-dihydroxy-6-(hydroxymethyl)tetrahydropyran-2-yl]oxy-22-(2-amino-2-oxo-ethyl)-5,15-dichloro-2,18,32,35,37-pentahydroxy-19-[(4R)-4-isobutyl-3-methyl-5-oxo-imidazolidin-1-yl]-20,23,26,42,44-pentaoxo-7,13-dioxa-21, …. It counts as physicochemical.

Series [12] is described as follows: Chemical reactivity of compound in acetaldehyde assessed as (1S,2R,18R,19R,22S,25R,28R,40S)-48-[(2S,3R,4S,5S,6R)-3-[(2S,4S,5S,6S)-4-amino-5-hydroxy-4,6-dimethyl-tetrahydropyran-2-yl]oxy-4,5-dihydroxy-6-(hydroxymethyl)tetrahydropyran-2-yl]oxy-22-(2-amino-2-oxo-ethyl)-5,15-dichloro-2,18,32,35,37-pentahydroxy-19-[(2R,4R)-4-isobutyl-2,3-dimethyl-5-oxo-imidazolidin-1-yl]-20,23,26,42,44-pentaoxo-7,13-di …. Type of series: physicochemical.

Series [13] in a line: Chemical reactivity of compound in formaldehyde assessed as (4R,4aR,5aS,12aR)-9-(3-(tert-butyl)-5-oxoimidazolidin-1-yl)-4,7-bis(dimethylamino)-3,10,12,12a-tetrahydroxy-1,11-dioxo-1,4,4a,5,5a,6,11,12a-octahydrotetracene-2-carboxamide formation. Type of series: physicochemical.
For series [14], the system named is Staphylococcus aureus. Kind of series: Antibacterial activity against methicillin-resistant Staphylococcus aureus ATCC 43300 in absence of HCHO by microdilution method. It counts as functional.
Series [15] deals with Staphylococcus aureus. Kind of series: Antibacterial activity against Staphylococcus aureus ATCC 6538 in absence of HCHO by microdilution method. It counts as functional.
Series [16] relates to Bacillus subtilis. In words: Antibiotic activity against Bacillus subtilis ATCC 6051 assessed as compound dimer phaeochromycinF mediated reduction in bacterial growth in LB medium measured upto 8 days. It counts as functional, organism-based. The following applies: time <= 8.0 day.
Series [17] can be described thus: Drug metabolism in Bacillus subtilis ATCC 6051 assessed as phaeochromycinF formation incubated for 1 hr by LC-MS analysis. Type of series: ADME.
In series [18] the test system is Staphylococcus aureus. In words: Antibiotic activity against Staphylococcus aureus ATCC 6538 assessed as compound dimer phaeochromycinF mediated reduction in bacterial growth in LB medium measured upto 8 days. As to conditions: time <= 8.0 day. It counts as functional, organism-based.
Series [19] in a line: Drug metabolism in Staphylococcus aureus ATCC 6538 assessed as phaeochromycinF formation incubated for 1 hr by LC-MS analysis. It counts as ADME.
Series [20] relates to Streptomyces sp. Kind of series: Protection against formaldehyde-induced toxicity in Streptomyces sp. OUCMDZ-4982 cultured in Gauze medium. Type of series: functional, organism-based.
The subject of series [21] is Staphylococcus aureus. In words: Bacteriostatic activity against methicillin-resistant Staphylococcus aureus ATCC 43300 assessed as reduction in bacterial colonies at 2 to 8 times MIC measured after 24 hrs by time kill assay. Type of series: functional, organism-based.
Series [22] is described as follows: Drug metabolism in Staphylococcus aureus ATCC 6538 assessed as reduction in 5-((4-hydroxy-2-oxo-2H-pyran-6-yl)methyl)-2-methyl-4H-chromen-4-one content incubated for 1 hr by LC-MS analysis. It counts as ADME.
In series [23] the test system is Staphylococcus aureus. Kind of series: Bactericidal activity against Staphylococcus aureus ATCC 6538 incubated for 24 hrs by microdilution method. Type of series: functional.
Series [24] can be described thus: Drug metabolism in Staphylococcus aureus ATCC 6538 assessed as reduction in formaldehyde content incubated for 1 hr by LC-MS analysis. Type of series: ADME.
The subject of series [25] is Staphylococcus aureus. In words: Induction of drug resistance in Staphylococcus aureus ATCC 6538 assessed as increase in MIC measured after 20 passages incubated for 24 hrs. Type of series: functional, organism-based.

For `Cc1cc(=O)c2c(Cc3cc(O)c(C(C)c4c(O)cc(Cc5cccc6oc(C)cc(=O)c56)oc4=O)c(=O)o3)cccc2o1`, the outcome in [1], in series [2], in series [3] and in [4] was inactive.

In the case of `Cc1cc(=O)c2c(Cc3cc(O)c(C(c4ccccc4)c4c(O)cc(Cc5cccc6oc(C)cc(=O)c56)oc4=O)c(=O)o3)cccc2o1`, the outcome in [1], in series [2], in series [3] and in series [4] was inactive.

With `Cc1cc(=O)c2c(Cc3cc(O)c([C@H]4c5c(cc(Cc6cccc7oc(C)cc(=O)c67)oc5=O)O[C@H]4CC(=O)O)c(=O)o3)cccc2o1`, the outcome in series [1], in series [2], in series [3] and in series [4] was inactive.

Regarding `Cc1cc(=O)c2c(Cc3cc(O)c(Cc4c(O)cc(CC5(O)CC(=O)c6c(C)cc(O)cc6O5)oc4=O)c(=O)o3)cccc2o1` (stereo not given), the outcome in series [1], in series [2], in series [3] and in [4] was inactive.

With `Cc1cc(=O)c2c(Cc3cc(O)c(Cc4c(O)cc(Cc5cccc(O)c5)oc4=O)c(=O)o3)cccc2o1`, the result in series [1], in [2], in series [3] and in series [4] was inactive.

On to `CCOC(=O)CC=C(c1c(O)cc(C)oc1=O)c1c(O)cc(C)oc1=O`, for which the outcome in [1], in series [2], in [3] and in series [4] was inactive.

As for `CCOC(=O)C[C@@H]1Oc2cc(C)oc(=O)c2[C@@H]1c1c(O)cc(C)oc1=O`, the outcome in series [1], in [2], in series [3] and in [4] was inactive.

`CN(C)c1cc(N2CN(C(C)(C)C)CC2=O)c(O)c2c1C[C@H]1C[C@H]3[C@H](N(C)C)C(O)=C(C(N)=O)C(=O)[C@@]3(O)C(O)=C1C2=O` (single isomer, unassigned): the values for the MIC in series [5] and in series [6] were 1 µg/mL (≈ 1.67 µM) and 32 µg/mL (≈ 53.5 µM), respectively.

As for `O=C(O)c1cn(C2CC2)c2cc(N3CCNCC3)c(F)cc2c1=O` [CIPROFLOXACIN], the MIC in series [5] was 1 µg/mL (≈ 3.02 µM); in series [7], 0.13 µg/mL (≈ 0.392 µM); in series [8] it was 0.5 µg/mL (≈ 1.51 µM). Besides, the MBC in [9] stood at 0.13 µg/mL (≈ 0.392 µM); in series [10] it was 4 µg/mL (≈ 12.1 µM).

On to `CCOC(=O)/C=C/C(c1c(O)cc(C)oc1=O)c1c(O)cc(C)oc1=O`, for which the result in series [1], in series [2], in series [3] and in series [4] was inactive.

For the molecule `CN(C)c1cc(NC(=O)CNC(C)(C)C)c(O)c2c1C[C@H]1C[C@H]3[C@H](N(C)C)C(O)=C(C(N)=O)C(=O)[C@@]3(O)C(O)=C1C2=O` [TIGECYCLINE], the MIC in [5] and in series [6] was 0.5 µg/mL (≈ 0.854 µM) in each case. Besides, the outcome in series [11], in [12] and in series [13] was Active.

With `Cc1cc(=O)c2c(Cc3cc(O)c(Cc4c(O)cc(Cc5cc(O)cc6c5C(=O)CC(C)(O)O6)oc4=O)c(=O)o3)cccc2o1` (stereo not given), the result in series [1], in series [2], in series [3] and in [4] was inactive.

In the case of `CC(C)C[C@@H]1C(=O)N([C@H]2C(=O)N[C@@H](CC(N)=O)C(=O)N[C@H]3C(=O)N[C@H]4C(=O)N[C@H](C(=O)N[C@H](C(=O)O)c5cc(O)cc(O)c5-c5cc4ccc5O)[C@H](O)c4ccc(c(Cl)c4)Oc4cc3cc(c4O[C@@H]3O[C@H](CO)[C@@H](O)[C@H](O)[C@H]3O[C@H]3C[C@](C)(N)[C@H](O)[C@H](C)O3)Oc3ccc(cc3Cl)[C@H]2O)[C@H](C)N1C`, the minimal inhibitory concentration (MIC) was 32 µg/mL (≈ 21.7 µM) in series [14] and 64 µg/mL (≈ 43.4 µM) in series [15].

With `CC1(O)CC(=O)c2c(Cc3cc(O)c(Cc4c(O)cc(Cc5cccc6c5C(=O)CC(C)(O)O6)oc4=O)c(=O)o3)cccc2O1` (stereo not given), the outcome in series [1], in series [2], in series [3] and in [4] was inactive.

Take `Cc1cc(=O)c2c(Cc3cc(O)cc(=O)o3)cccc2o1`: the outcome in [1], in series [16], in [2], in [3] and in series [4] was inactive. In addition, the Drug metabolism entry in [17] and in series [19] was “metabolite_detected” throughout. Further, the result in series [18] and in [20] was Active.

As for `Cc1cc(=O)c2c(Cc3cc(O)c(Cc4c(O)cc(Cc5cccc6c5C(=O)CC(C)(O)O6)oc4=O)c(=O)o3)cccc2o1` (stereo not given), the outcome in [1], in series [2], in series [3] and in series [4] was inactive.

On to `CC(=O)CC(c1c(O)cc(Cc2cccc3oc(C)cc(=O)c23)oc1=O)c1c(O)cc(Cc2cccc3oc(C)cc(=O)c23)oc1=O`, for which the outcome in series [1], in series [2], in series [3] and in series [4] was inactive.

Consider `Cc1cc(=O)c2c(Cc3cc(O)c(Cc4c(O)cc(Cc5cccc6oc(C)cc(=O)c56)oc4=O)c(=O)o3)cccc2o1`, for which, in [21], the outcome was Active. The values for the MIC in [5], in [7] and in series [8] were 2 µg/mL (≈ 3.45 µM), 0.5 µg/mL (≈ 0.861 µM) and 1 µg/mL (≈ 1.72 µM), respectively. The result in series [1], in [2], in series [3], in series [4] and in series [25] was inactive. In addition, the Drug metabolism entry in series [22] and in series [24] was “metabolite_notdetected” throughout. Moreover, the MBC was determined as 4 µg/mL (≈ 6.89 µM) in series [23], 1 µg/mL (≈ 1.72 µM) in series [9] and 8 µg/mL (≈ 13.8 µM) in [10].

As for `CC(=O)c1c(O)cccc1Cc1cc(O)c(Cc2c(O)cc(Cc3cccc4oc(C)cc(=O)c34)oc2=O)c(=O)o1`, the outcome in series [1], in [2], in series [3] and in series [4] was inactive.

Regarding `Cc1cc(=O)c2c(Cc3cc(O)c(Cc4c(O)cc(Cc5cc(=O)c6c(C)cc(O)cc6o5)oc4=O)c(=O)o3)cccc2o1`, the result in series [1], in series [2], in series [3] and in series [4] was inactive.

As to `CC(C)C[C@@H]1C(=O)N([C@H]2C(=O)N[C@@H](CC(N)=O)C(=O)N[C@H]3C(=O)N[C@H]4C(=O)N[C@H](C(=O)N[C@H](C(=O)O)c5cc(O)cc(O)c5-c5cc4ccc5O)[C@H](O)c4ccc(c(Cl)c4)Oc4cc3cc(c4O[C@@H]3O[C@H](CO)[C@@H](O)[C@H](O)[C@H]3O[C@H]3C[C@](C)(N)[C@H](O)[C@H](C)O3)Oc3ccc(cc3Cl)[C@H]2O)CN1C`, the minimal inhibitory concentration (MIC) in series [14] and in series [15] was 64 µg/mL (≈ 43.8 µM) throughout.
